From US20250019388A1, “STAT3 DEGRADERS AND USES THEREOF” (priority 2021, published 2025)

Tests used:
ALCL cell lines = test: Cellular phenotypic assays (GI50) in ALCL cell lines; format: cell-based; conditions: Homo sapiens; several ALCL cell lines
STAT3 [1] = target: T1, STAT3 (Rattus norvegicus, UniProt P52631); test: PK/PD study in rats, STAT3 degradation in tissues; format: in vivo; conditions: IV administration
T1 construct: from tissue

Aqueous solubility = format: physicochemical
Protocol: Compound A injection was manufactured as a frozen concentrated solution containing 10 mg/mL of free acid intended to be diluted with IV infusion vehicle. It has aqueous solubility greater than 10 mg/mL at pH 4.5 to 9.0 but less than 10 mg/mL at pH less than or equal to 3.

caspase 3/7 = test: Caspase 3/7 activity in ALCL lines; format: cell-based, human; conditions: at similar concentrations
[2] = test system: other STAT family members or other cellular proteins; test: Proteome wide assessment in PBMC; format: cell-based
[3] = Body weight in SU-DHL-1 xenograft study; format: in vivo, NOD SCID mice; conditions: IV route, SU-DHL-1 study
Protocol: (§1) The antitumor activity of Compound A ammonium hydrogen salt was evaluated in a human SU-DHL-1 cell-line xenograft model established in NOD SCID female mice. Tumor bearing mice (n=5/group) were administered either 0 (vehicle; PBS), 5, 10, 15, or 45 mg/kg Compound A once weekly (QW; Days 0, 7, and 14) or 0 (vehicle; PBS), 10, or 30 mg/kg Compound A once every two weeks (Q2W; Days 0 and 14). Animals administered Compound A QW were monitored until Day 25 post first dose and those administered Compound A Q2W were monitored until Day 71 post first dose.

STAT3 [4] = target: T2, STAT3 (Homo sapiens, UniProt P40763); test: STAT3 degradation in tumor, SU-DHL-1 tumor xenograft murine model; format: in vivo, mice; parameters: from tissue; host or cells: SU-DHL-1 xenograft tumour in immunocompromised mice; conditions: 10 mg/kg QW; observed for 48 hrs
[5] = Phase 1 study, safety and tolerability; format: in vivo, human; conditions: patients, DL1
Protocol: Rationale: Targeted protein degraders represent a new therapeutic class of compounds that utilize the ubiquitin proteasome system to target the specific degradation of proteins. Compound A is a protein degrader that targets signal transducers and activators of transcription (STAT)3, a transcription factor that plays an important role in hematological malignancies such as lymphomas and in solid tumors. Compound A is administered via intravenous infusion (IV) at the dose levels defined in the protocol on Days 1, 8, 15, and 22 of each 28-day cycle.
Patients who provide informed consent and meet the eligibility criteria for the study will be enrolled and treated with Compound A IV on Days 1, 8, 15, and 22 of a 28-day cycle. Patients will remain on study treatment until disease progression, unacceptable toxicity, withdrawal of consent, any study-specific discontinuation criteria are met, or the Investigator determines that it is in the best interest of the patient to discontinue study treatment.
Phase 1a: This part aims to characterize the safety and tolerability of IV weekly doses of Compound A in sequential cohorts. […]

STAT3 [6] = target: T2, STAT3; test: STAT3 degradation in human ALCL cell lines SU-DHL-1 and SUP-M2; format: cell-based; conditions: SU-DHL-1 and SUP-M2 cell lines
SU-DHL-1 xenografts = test: Antitumor activity in SU-DHL-1 cell-line xenograft model; format: in vivo, NOD SCID mice
Protocol: (§2) The antitumor efficacy of Compound A ammonium hydrogen salt was evaluated in immunocompromised mice implanted with human ALCL cell lines SU-DHL-1 and SUP-M2. Protocols for testing STAT3 degraders in human cell line xenograft models can be found, for example, in WO 2020/206424, incorporated herein by reference.
as §1

SU-DHL-1 cell line = test: Washout experiments in the SU-DHL-1 cell line; format: cell-based, human
STAT3 [7] = test: STAT3 degradation potency in hepatocytes; format: cell-based; conditions: across human, rat, and dog
[8] = Body weight in SUP-M2 xenograft study; format: in vivo, NOD SCID mice; conditions: IV route
Protocol: (§3) The antitumor activity of Compound A ammonium hydrogen salt was evaluated in a human SUP-M2 cell-line xenograft model established in NOD SCID female mice. Tumor bearing mice (n=5/group) were administered either 0 (vehicle; PBS), 10, 20, or 30 mg/kg Compound A QW (Days 0, 7, and 14), 10 or 20 mg/kg Compound A on a 2 days on/5 days off schedule (Days 0, 1, 7, 8, 14, and 15), or 0 (vehicle; PBS), 20, or 40 mg/kg Compound A Q2W (Days 0 and 14). Animals administered Compound A QW or 2 on/5 off were monitored until Day 25 post first dose, and those administered Compound A Q2W were monitored until Day 52 post first dose.

SUP-M2 xenografts = test: Antitumor activity in SUP-M2 cell-line xenograft model; format: in vivo, NOD SCID mice; conditions: for tumor regression: 2 day on/5 days off
Protocol: as §2, §3

STAT3 [9] = target: T2, STAT3; test: Phase 1 study, STAT3 degradation in blood (PBMCs); format: in vivo; parameters: Observed STAT3 degradation of 50-80% in PBMCs at Dose Level 1; from tissue; host or cells: blood / PBMCs of patients dosed IV with Compound A; conditions: patients
Source text: Rationale: Targeted protein degraders represent a new therapeutic class of compounds that utilize the ubiquitin proteasome system to target the specific degradation of proteins.

T2 sequence (P40763 whole entry): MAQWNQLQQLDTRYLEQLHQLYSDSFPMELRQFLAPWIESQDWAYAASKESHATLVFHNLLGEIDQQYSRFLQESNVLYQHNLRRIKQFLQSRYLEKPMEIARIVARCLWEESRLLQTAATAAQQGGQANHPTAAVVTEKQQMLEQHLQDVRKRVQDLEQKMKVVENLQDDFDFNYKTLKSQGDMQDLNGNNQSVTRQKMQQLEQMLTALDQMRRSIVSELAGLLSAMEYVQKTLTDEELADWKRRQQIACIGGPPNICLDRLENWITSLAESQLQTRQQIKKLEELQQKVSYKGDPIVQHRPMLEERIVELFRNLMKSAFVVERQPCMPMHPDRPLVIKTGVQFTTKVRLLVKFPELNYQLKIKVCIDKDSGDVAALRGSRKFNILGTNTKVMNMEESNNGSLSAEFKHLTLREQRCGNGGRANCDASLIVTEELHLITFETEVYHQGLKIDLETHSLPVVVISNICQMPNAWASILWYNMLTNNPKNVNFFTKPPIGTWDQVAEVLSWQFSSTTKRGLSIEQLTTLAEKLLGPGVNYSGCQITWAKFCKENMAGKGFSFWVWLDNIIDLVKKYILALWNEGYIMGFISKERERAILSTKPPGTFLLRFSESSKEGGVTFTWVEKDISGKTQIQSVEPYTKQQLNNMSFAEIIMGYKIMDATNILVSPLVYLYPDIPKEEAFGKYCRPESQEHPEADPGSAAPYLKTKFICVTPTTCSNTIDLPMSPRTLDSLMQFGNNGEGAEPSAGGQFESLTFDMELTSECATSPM
T1 sequence (P52631 whole entry): as the sequence (P40763 whole entry) above, with E311D, E760D counted along it

CC(=O)N1CC[C@H]2CC[C@@H](C(=O)N[C@@H](CCC(N)=O)COc3cccc(CCCC(=O)N[C@H](C(=O)N4C[C@H](O)C[C@H]4C(=O)N[C@@H](C)c4ccc(-c5scnc5C)cc4)C(C)(C)C)c3Cl)N2C(=O)[C@@H](NC(=O)c2cc3cc(C(=O)P(=O)(O)O)ccc3[nH]2)C1 [Compound A, (2-(((5S,8S,10aR)-3-acetyl-8-(((S)-5-amino-1-(2-chloro-3-(4-(((S)-1-((2S,4R)-4-hydroxy-2-(((S)-1-(4-(4-methylthiazol-5-yl)phenyl)ethyl)carbamoyl)pyrrolidin-1-yl)-3,3-dimethyl-1-oxobutan-2-yl)amino)-4-oxobutyl)phenoxy)-5-oxopentan-2-yl)carbamoyl)-6-oxodecahydropyrrolo[1,2-a][1,5]diazocin-5-yl)carbamoyl)-1H-indole-5-carbonyl)phosphonic acid]
GI50 (ALCL cell lines): 0.0081 to 0.0574 µM
degradation of STAT3 protein in tissues (STAT3 [1]): significant degradation of STAT3 protein in multiple tissues
solubility (Aqueous solubility; aqueous buffer, pH 4.5 to 9.0): > 10 mg/mL
solubility (Aqueous solubility; pH 3, aqueous buffer, pH less than or equal to 3): < 10 mg/mL
caspase 3/7 activity, a marker of apoptosis (caspase 3/7): induced caspase 3/7 activity
selectivity of degradation [2]: does not degrade other STAT family members or other cellular proteins
body weight change [3]: slight to moderate body weight increases
STAT3 degradation in tumor (STAT3 [4]): greater than 90%
safety and tolerability (DLTs, SAEs) [5]: safe and well-tolerated with no DLTs or SAEs
STAT3 degradation (concentration) (STAT3 [6]): ≤ 11.8 ± 2.3 nM
tumor growth inhibition (TGI) (SU-DHL-1 xenografts; 5 mg/kg QW IV): 79.9%
TGI (SU-DHL-1 xenografts; 10 mg/kg Q2W IV): 89.8%
tumor regression (SU-DHL-1 xenografts; 10 mg/kg QW IV): complete regression
tumor regression (SU-DHL-1 xenografts; 15 mg/kg QW IV): complete regressions
TGI (SU-DHL-1 xenografts; 30 mg/kg Q2W IV): 99.8%
tumor regression (SU-DHL-1 xenografts; 30 mg/kg Q2W IV, all animals): complete tumor regressions
tumor regression (SU-DHL-1 xenografts; 45 mg/kg QW IV): complete regressions
duration of sustained STAT3 degradation after which irreversible growth inhibition occurred (SU-DHL-1 cell line): approximately 48 hr
degradation potency of STAT3 in hepatocytes (STAT3 [7]): comparable degradation potency
body weight change [8]: little to slight body weight increases
TGI (SUP-M2 xenografts; 10 mg/kg QW IV): 83.8%
tumor regression (SUP-M2 xenografts; 10 mg/kg): complete tumor regression in all animals
animals with complete tumor regression (SUP-M2 xenografts; 20 mg/kg Q2W): 4 of 5
animals with complete tumor regression (SUP-M2 xenografts; 20 mg/kg QW IV): 4 of 5
tumor regression (SUP-M2 xenografts; 20 mg/kg): complete tumor regression in all animals
animals with complete tumor regression (SUP-M2 xenografts; 30 mg/kg QW IV): 5 of 5
animals with complete tumor regression (SUP-M2 xenografts; 40 mg/kg Q2W): 5 of 5
time of maximal STAT3 degradation post infusion (STAT3 [9]; DL1, Cycle 1 weeks 1 & 2): 24 to 96 h
STAT3 degradation in PBMCs (STAT3 [9]; Dose Level 1): 50-80%
duration of target degradation (STAT3 [9]; first dose level): At least 72 h
maximum STAT3 knockdown in blood (STAT3 [9]; first dose level): up to 86%
mean maximum STAT3 degradation in blood (STAT3 [9]; first dose level (DL1, 0.05 mg/kg IV), following first 2 doses of Cycle 1): 66%
